Assay results from patent US7473682B2, “Angiogenic peptides and uses thereof” (Ramot at Tel Aviv University Ltd., priority 2003, dated 2009).

Legend:
ECs (HUVECs) = test: FACS binding of FITC-labeled synthetic peptides to ECs; parameters: species or system human; conditions: 6 μg FITC labeled peptide, 10^5 ECs, 2 hours
Method: Fluorescein labeling of synthetic peptides—Fluorescein Isothiocyanate (FTIC, Pierce, Rockford, Ill.) is an amino-reactive probe that reacts in an alkine environment with primary amines to form a stable fluorescent derivative. 12.5 μl of FITC (10 mg/ml) were added per 1 mg of peptide diluted in 0.5 M bicarbonate buffer (pH 9.5) and agitated in the dark for 2 hours. 0.1 ml of 1.5 M hydroxilamine was then added per 1 ml of reaction mixture and agitated for an additional 30 minutes at room temperature. Unbound FITC was removed by dialysis in the presence of PBS.
Peptide binding to ECs—ECs were cultured in M199 supplemented with 10% FCS. For peptide binding assays, the cells were trypsinized and 10^5 cells were suspended in PBS supplemented with 5% FCS and 0.1% sodium azide. Cells were incubated for 2 hours (on ice, in the dark) in the presence of 1-6 μg of FITC-labeled peptides, following which the stained cells were washed twice with PBS. Samples were analyzed by FACS (FACScan, Becton Dickinson, San Jose, Calif., USA). For control, 0.5×10^6 of PBLs were utilized.
FACS analysis of peptide binding to ECs with and without hypoxia treatment—ECs were exposed to hypoxia conditions and then prepared for FACS analysis as described in Example 3, hereinabove. […] Samples were analyzed by Fluorescence Activated Cell Sorter (FACScan Beckton Dickinson, Calif., USA).

rat ischemic hind limb = test: Rat ischemic hind-limb model, laser-Doppler blood flow; format: in vivo; conditions: 600 μg peptide, days 2, 6, 9 and 13
Method: Rat ischemic hind-limb model and laser-Doppler imager analysis—A rat ischeric hind limb model was used for evaluation of the in vivo potential of angiogenesis induced by the selected synthetic peptides. Ischemia was created in the rat left hind limb by ligation the femoral artery. The right hind limb served as a control. A day after the operation each of the peptides was injected into two sites close to the ligation and one site distal to the ligation. Each rat was treated with each of the peptides in a total amount of 600 μg.
The blood flow was measured using a Laser Doppler Blood Flow analyzer (MoorLDI, Moor Instrument, Wilmington, Del.) at 2, 6, 9 and 13 days after peptides injections. The average perfusion of each limb was computed and blood flow was expressed as the ischemic (left)/control (right) blood flow ratio.

| Sequence | Binding to ECs exposed to hypoxia compared with normoxia (ECs (HUVECs)) | Median flux of the ischemic leg/control leg (rat ischemic hind limb) |
| --- | --- | --- |
| LLADTTHHRPWT (Phage displayed peptide) [LT] | increased binding | – |
| QPWLEQAYYSTF (Phage displayed peptide) [QF] | – | 112.5% |
| SAHGTSTGVPWP (Phage displayed peptide) | increased binding | – |
| YPHIDSLGHWRR (Phage displayed peptide) [YR] | – | 108.2% |
